# In patent US10710979B2, “EGFR kinase inhibitor and preparation method and use thereof” (ZHEJIANG BOSSAN PHARMACEUTICAL CO. LTD., priority 2015, dated 2020):
# Columns and labels:
# [1] = test system: human lung cancer cells H1975; experiment: Effect of compounds on proliferation of tumor cells (MTT), H1975; type: cell-based; conditions: for IC50: Homo sapiens, NCI-H1975, H1975 cells, 72 hours, MTT
# Protocol: (§1) Human lung cancer cells H1975, H522, human hepatoma cell HepG2, human melanoma cell A375, human epidermal cancer cell A431, and human colon cancer cells COLO205 were cultivated. The cells were collected when they have grown to logarithmic growth phase, and centrifuged at 1000 rpm for 5 min, from which the supernatant was discarded, and the rest was suspended with appropriate amount of medium, and the concentration of cells was adjusted to 2.5-5.5×10^4/ml (once it was 3.0-5.5×10^4/ml). The cell suspension was inoculated into a 96-well cell culture plate with 100 μl per well, and placed in a cell incubator (37° C., 5% CO2) for 24 hours, and then 100 μl of the drug diluted in the cell culture medium was added to each well of the drug group. Three duplicate wells were set for each drug, and the negative control group was medium containing 0.5% DMSO. After being incubated for 72 hours in the incubator, 20 μl of MTT (5 mg/ml) was added to each well, which was placed under 37° C. for 3 hours. 150 μl of DMSO was added to each well and shaken at 37° C. for 5 mins, and absorbance (OD) was determined at 492 nm. The Prism Graphpad statistical software was used to calculate IC50 values.
# [2] = test system: human lung cancer cells H522; experiment: Effect of compounds on proliferation of tumor cells (MTT), H522; type: cell-based; conditions: NCI-H522, 72 hours
# Protocol: as §1
# [3] = test system: human epidermal cancer cell A431; experiment: Effect of compounds on proliferation of tumor cells (MTT), A431; type: cell-based; conditions: A-431, 72 hours
# Protocol: as §1
# [4] = test system: subcutaneously transplanted lung cancer H1975 tumors; experiment: In vivo efficacy in inhibiting human lung cancer H1975 xenograft; parameters: species or system BALB/c nude mice; conditions: 30.0 mg/kg ig qd × 14 d; for Inhibition rate of tumor IR (tumor weight): tumor weight on day 14 vs negative control
# Protocol: The inhibitory effect of ES series compounds to subcutaneously transplanted lung cancer H1975 tumors in nude mice was evaluated.
# BALB/c nude mice, female, weighing 17-20 g, purchased from Beijing Weitong Lihua Experimental Animal Technology Co., Ltd. (license number: SCXK (Beijing) 2012-0001). Feeding environment: SPF grade animal room, free feeding, 12 h light/12 h dark.
# Under aseptic conditions, H1975 cells in the proliferation stage were taken, whose cell concentration was adjusted after digestion, and seeded at armpit of nude mice with a volume of 0.1 mL. Tumor diameter was measured with vernier caliper, and after the tumor was grown to about 400 mm^3, 30 tumor-bearing mice were selected, which were randomly divided into 5 groups according to the size of the tumors. Each group was dosed according to the set dosing regimen, and the administering day was recorded as D1. The negative control group was given the same amount of vehicle. The longer and shorter diameters of tumor were measured twice a week; meanwhile the body weights of mice were weighed.
# The relevant indicators were observed, measured and recorded on the first day of dosing. During the experiment, the tumor size was measured with a vernier caliper to observe the volume change and growth rate of the tumor mass. Tumor-bearing mice were sacrificed at the end of the experiment and the tumor mass was dissected and weighed.
# Efficacy evaluation indicators include: relative tumor proliferation rate and weight, general status and other related toxicity indicators. At the end of the experiment, the tumor growth curve and weight change curve were drawn for each group.
# The calculation formula of tumor volume (TV) is: TV=1/2×a×b^2, in which a and b respectively represent the longer and shorter diameters of the tumor. The relative tumor volume (RTV) was calculated based on the measured results and the formula was: RTV=Vt/V0, in which V0 is the tumor volume measured before dosing, and Vt is the tumor volume at each measurement after dosing.
# The evaluation index of anti-tumor activity is relative tumor proliferation rate T/C (%), and the formula is as follows: […], TRTV: treatment group's RTV; CRTV: negative control group's RTV. T/C (%)≤40% and statistical treatment P<0.05 mean effective. The tumor weight (TW) is lower than that of the negative control group and statistical treatment P<0.05 mean effective. Inhibition rate of tumor IR (%)=(1−TTW/CTW)×100%, TTW: treatment group's TW; CTW: negative control group's TW.
# The data was expressed as Mean±SD, and t-tests were used for comparison between groups.
# human melanoma cell A375 = experiment: Effect of compounds on proliferation of tumor cells (MTT), A375; type: cell-based; conditions: A-375, 72 hours
# Protocol: as §1
# [5] = test system: human hepatoma cell HepG2; experiment: Effect of compounds on proliferation of tumor cells (MTT), HepG2; type: cell-based; conditions: 72 hours
# Protocol: as §1
# [6] = test system: human colon cancer cells COLO205; experiment: Effect of compounds on proliferation of tumor cells (MTT), COLO205; type: cell-based; conditions: COLO 205, 72 hours
# Protocol: as §1
SMILES,IC50 [1] [nM],IC50 [2] [nM],IC50 [3] [nM],IC50 (human melanoma cell A375) [nM],IC50 [5] [nM],IC50 [6] [nM],Inhibition rate of tumor IR (tumor weight) [4] [%],Inhibitory concentration relative to control compound 1686 ([1]; for most of the tumor cells of Test Example 1),Volume of subcutaneous tumors / anti-tumor effect ([4]; after 14 days)
"C=CC(=O)Nc1cccc(Nc2nc(Nc3ccc(N4CCN(C(C)=O)CC4)cc3OC)ncc2C(F)(F)F)c1 [Compound 1686, reference compound]",52.5,522,1570,3000,1490,4720,50.09,–,–
C=CC(=O)Nc1cccc(Nc2nc(Nc3cnc(N4CCN(C)CC4)cc3OC)ncc2C(F)(F)F)c1 [ES-075],36.7,–,1270,2740,3540,–,37.27,–,–
C=CC(=O)Nc1cccc(Nc2nc(Nc3cnc(N4CCN(C(=O)N(C)C)CC4)nc3OC)ncc2C(F)(F)F)c1 [ES-164],74.5,1390,5720,18200,12600,6050,–,–,–

# More lines, main results first:
IC50 [1] [nM],IC50 [2] [nM],IC50 [3] [nM],IC50 (human melanoma cell A375) [nM],IC50 [5] [nM],IC50 [6] [nM],SMILES,Inhibition rate of tumor IR (tumor weight) [4] [%],Inhibitory concentration relative to control compound 1686 ([1]; for most of the tumor cells of Test Example 1),Volume of subcutaneous tumors / anti-tumor effect ([4]; after 14 days)
22.8,–,992,2260,968,–,C=CC(=O)Nc1cccc(Nc2nc(Nc3ccc(N4CCN(C(C)=O)CC4)nc3OC)ncc2C(F)(F)F)c1 [ES-071],50.93,½,–
34.2,–,774,2400,3310,–,C=CC(=O)Nc1cccc(Nc2nc(Nc3ccc(N4CCN(C)CC4)nc3OC)ncc2C(F)(F)F)c1 [ES-072],79.42,–,better than that of the positive control group CO-1686
168,5110,7500,19000,18900,5490,C=CC(=O)Nc1cccc(Nc2nc(Nc3cnc(N4CCN(C(=O)C5COC5)CC4)nc3OC)ncc2C(F)(F)F)c1 [ES-163],–,–,–
